# Measured values taken from patent EP0413289B1 (priority 1989, dated 1991).
# Assays:
# [1] = tested on: panel of fifteen human rhinovirus (HRV) serotypes; assay: plaque reduction assay, panel of fifteen human rhinovirus serotypes (MIC50/MIC80); type: cell-based; details: for MIC50: concentration required to inhibit 50% of the tested serotypes, HeLa (Wisconsin) cells, read-out: MIC₅₀ (Rhinovirus); for MIC₈₀ (N) (Rhinovirus): concentration required to inhibit 80% of the tested serotypes, N in parentheses = number of serotypes tested
# Procedure: (§1) The MIC values were determined by a standard plaque reduction assay as follows: HeLa (Wisconsin) cells in monolayers were infected at a concentration of virus to give approximately 80 plaques per monolayer in the virus control (no drug present). The compound to be tested was serially diluted and included in the agar-medium overlay and in some cases, during the adsorption period as well. The MIC was determined to be that concentration of compound which reduced the number of plaques by 50% with respect to the untreated virus control.
# (§2) In the standard test procedures, the compounds were tested against a panel of fifteen human rhinovirus (HRV) serotypes, namely HRV-2, -1A, -1B, -6, -14, -21, -22, -15, -25, -30, -50, -67, -89, -86 and -41. The MIC value for each rhinovirus serotype was determined, and the efficacy of each compound was determined in terms of MIC₅₀ and MIC₈₀ values, which is the concentration of the compound required to inhibit 50% and 80%, respectively, of the tested serotypes.
# The following Table gives the testing results with the compounds of the invention. For some of the compounds, the MIC₅₀ and MIC₈₀ values are based on the testing of fewer than 15 rhinovirus serotypes. In these cases the number of serotypes (N) is indicated in parentheses after the MIC₈₀ figure.
# HRV-6 = assay: plaque reduction assay, rhinovirus serotype 6; type: cell-based, human rhinovirus (HRV); details: Enterovirus, HRV6, 50% plaque reduction, HeLa (Wisconsin) cells, read-out: MIC
# Procedure: as §1, §2
# (§3) The following Table compares the MIC values for the compound of Example 10(c) and the methylated derivative of Example 11(c) against 15 rhinovirus serotypes: […]
# HRV-86 = assay: plaque reduction assay, rhinovirus serotype 86; type: cell-based, human rhinovirus (HRV); details: Enterovirus, HRV86, 50% plaque reduction, HeLa (Wisconsin) cells, read-out: MIC
# Procedure: as §1, §2, §3
# HRV-22 = assay: plaque reduction assay, rhinovirus serotype 22; type: cell-based, human rhinovirus (HRV); details: Enterovirus, HRV22, 50% plaque reduction, HeLa (Wisconsin) cells, read-out: MIC
# Procedure: as §1, §2, §3
# HRV-30 = assay: plaque reduction assay, rhinovirus serotype 30; type: cell-based, human rhinovirus (HRV); details: Enterovirus, HRV30, 50% plaque reduction, HeLa (Wisconsin) cells, read-out: MIC
# Procedure: as §1, §2, §3
# HRV-50 = assay: plaque reduction assay, rhinovirus serotype 50; type: cell-based, human rhinovirus (HRV); details: Enterovirus, HRV50, 50% plaque reduction, HeLa (Wisconsin) cells, read-out: MIC
# Procedure: as §1, §2, §3
# HRV-14 = assay: plaque reduction assay, rhinovirus serotype 14; type: cell-based, human rhinovirus (HRV); details: 50% plaque reduction, HeLa (Wisconsin) cells, read-out: MIC
# Procedure: as §1, §2, §3
# HRV-25 = assay: plaque reduction assay, rhinovirus serotype 25; type: cell-based, human rhinovirus (HRV); details: Enterovirus, HRV25, 50% plaque reduction, HeLa (Wisconsin) cells, read-out: MIC
# Procedure: as §1, §2, §3
# HRV-1B = assay: plaque reduction assay, rhinovirus serotype 1B; type: cell-based, human rhinovirus (HRV); details: 50% plaque reduction, HeLa (Wisconsin) cells, read-out: MIC
# Procedure: as §1, §2, §3
# HRV-15 = assay: plaque reduction assay, rhinovirus serotype 15; type: cell-based, human rhinovirus (HRV); details: Enterovirus, HRV15, 50% plaque reduction, HeLa (Wisconsin) cells, read-out: MIC
# Procedure: as §1, §2, §3
# HRV-41 = assay: plaque reduction assay, rhinovirus serotype 41; type: cell-based, human rhinovirus (HRV); details: Enterovirus, HRV41, 50% plaque reduction, HeLa (Wisconsin) cells, read-out: MIC
# Procedure: as §1, §2, §3
# HRV-1A = assay: plaque reduction assay, rhinovirus serotype 1A; type: cell-based, human rhinovirus (HRV); details: 50% plaque reduction, HeLa (Wisconsin) cells, read-out: MIC
# Procedure: as §1, §2, §3
# HRV-21 = assay: plaque reduction assay, rhinovirus serotype 21; type: cell-based, human rhinovirus (HRV); details: Enterovirus, HRV21, 50% plaque reduction, HeLa (Wisconsin) cells, read-out: MIC
# Procedure: as §1, §2, §3
# HRV-67 = assay: plaque reduction assay, rhinovirus serotype 67; type: cell-based, human rhinovirus (HRV); details: Enterovirus, HRV67, 50% plaque reduction, HeLa (Wisconsin) cells, read-out: MIC
# Procedure: as §1, §2, §3
# HRV-89 = assay: plaque reduction assay, rhinovirus serotype 89; type: cell-based, human rhinovirus (HRV); details: 50% plaque reduction, HeLa (Wisconsin) cells, read-out: MIC
# Procedure: as §1, §2, §3
# HRV-2 = assay: plaque reduction assay, rhinovirus serotype 2; type: cell-based, human rhinovirus (HRV); details: 50% plaque reduction, HeLa (Wisconsin) cells, read-out: MIC
# Procedure: as §1, §2, §3
# Polio 2 = assay: microbe, parasite or virus in culture; type: cell-based; details: HeLa, read-out: MIC (Polio 2)
compound,measurement,setting,value
"CCCc1cc(CCCOc2c(C)cc(-c3noc(C)n3)cc2C)on1 [Example 9, 5-{3-[2,6-Dimethyl-4-(5-methyl-1,2,4-oxadiazol-3-yl)phenoxy]propyl}-3-propylisoxazole]",MIC50,[1],0.025 µg/mL
same,MIC₈₀ (N) (Rhinovirus),[1],0.04 (6) micrograms per milliliter
"Cc1cc(CCCCCOc2c(C)cc(-c3nc(C)no3)cc2C)on1 [2(b), 5-{5-[2,6-dimethyl-4-(3-methyl-1,2,4-oxadiazol-5-yl)phenoxy]pentyl}-3-methylisoxazole]",MIC50,[1],0.053 µg/mL
same,MIC₈₀ (N) (Rhinovirus),[1],0.42 (6) micrograms per milliliter
"Cc1cc(CCCOc2c(C)cc(-c3nnc(C)o3)cc2C)on1 [12(d), 5-{3-[2,6-Dimethyl-4-(5-methyl-1,3,4-oxadiazol-2-yl)-phenoxy]propyl}-3-methylisoxazole]",MIC50,[1],0.054 µg/mL
same,MIC₈₀ (N) (Rhinovirus),[1],0.35 (6) micrograms per milliliter
"Cc1cc(CCCCCOc2c(Cl)cc(-c3nnc(C)o3)cc2Cl)on1 [Example 11(c), 5-{5-[2,6-dichloro-4-(5-methyl-1,3,4-oxadiazol-2-yl)phenoxy]pentyl}-3-methylisoxazole]",EC50,HRV-6,0.46 µg/mL
same,EC50,HRV-86,0.57 µg/mL
same,EC50,HRV-22,0.018 µg/mL
same,EC50,HRV-30,0.031 µg/mL
same,EC50,HRV-50,0.041 µg/mL
same,EC50,HRV-14,0.19 µg/mL
same,EC50,HRV-25,0.7 µg/mL
same,EC50,HRV-1B,0.14 µg/mL
same,EC50,HRV-15,0.42 µg/mL
same,EC50,HRV-41,99 µg/mL
same,EC50,HRV-1A,0.44 µg/mL
same,EC50,HRV-21,0.0092 µg/mL
same,MIC50,[1],0.14 µg/mL
same,MIC₈₀ (N) (Rhinovirus),[1],0.46 (15) micrograms per milliliter
same,EC50,HRV-67,0.1 µg/mL
same,EC50,HRV-89,0.01 µg/mL
same,EC50,HRV-2,0.016 µg/mL
"CCc1cc(CCCOc2c(C)cc(-c3nc(C)no3)cc2C)on1 [4(d), 5-{3-[2,6-Dimethyl-4-(3-methyl-1,2,4-oxadiazol-5-yl)-phenoxy]propyl}-3-ethylisoxazole]",MIC50,[1],0.042 µg/mL
same,MIC₈₀ (N) (Rhinovirus),[1],0.15 (15) micrograms per milliliter
"Cc1cc(CCCCCOc2c(C)cc(-c3noc(C)n3)cc2C)on1 [Example 6, 5-{5-[2,6-dimethyl-4-(5-methyl-1,2,4-oxadiazol-3-yl)phenoxy]pentyl}-3-methylisoxazole]",MIC50,[1],0.018 µg/mL
same,MIC₈₀ (N) (Rhinovirus),[1],0.10 (5) micrograms per milliliter
"Cc1cc(CCCOc2c(C)cc(-c3noc(C)n3)cc2C)on1 [Example 7, 5-{3-[2,6-Dimethyl-4-(5-methyl-1,2,4-oxadiazol-3-yl)phenoxy]propyl}-3-methylisoxasole]",MIC50,[1],0.012 µg/mL
same,MIC₈₀ (N) (Rhinovirus),[1],0.069 (13) micrograms per milliliter
"Cc1cc(CCCOc2c(C)cc(-c3nc(C)no3)cc2C)on1 [3(b), 5-{3-[2,6-Dimethyl-4-(3-methyl-1,2,4-oxadiazol-5-yl)-phenoxy]propyl}-3-methylisoxazole]",MIC50,[1],0.026 µg/mL
same,MIC₈₀ (N) (Rhinovirus),[1],0.12 (15) micrograms per milliliter
"Cc1cc(CCCCCCCOc2ccc(-c3nnc(C)o3)cc2)on1 [Example 13, 3-Methyl-5-{7-[4-(5-methyl-1,3,4-oxadiazol-2-yl)phenoxy]-heptyl}isoxazole]",MIC50,[1],2.3 µg/mL
same,MIC₈₀ (N) (Rhinovirus),[1],3.2 (2) micrograms per milliliter
"CCCc1cc(CCCOc2c(C)cc(-c3nc(C)no3)cc2C)on1 [5(e), 5-{3-[2,6-dimethyl-4-(3-methyl-1,2,4-oxadiazol-5-yl)phenoxy]propyl}-3-(n-propyl)isoxazole]",MIC50,[1],0.036 µg/mL
same,MIC₈₀ (N) (Rhinovirus),[1],0.06 (7) micrograms per milliliter
"Cc1cc(CCCCCOc2c(C)cc(-c3nnc(C)o3)cc2C)on1 [Example 14, 5-{5-[2,6-Dimethyl-4-(5-methyl-1,3,4-oxadiazol-2-yl)phenoxy]pentyl}-3-methylisoxazole]",MIC50,[1],0.34 µg/mL
same,MIC₈₀ (N) (Rhinovirus),[1],0.67 (2) micrograms per milliliter
"Cc1cc(CCCCCOc2ccc(-c3nnco3)cc2)on1 [Example 1, 3-Methyl-5-{5-[4-(1,3,4-oxadiazol-2-yl)phenoxy]pentyl}-isoxazole, reference compound]",MIC₈₀ (N) (Rhinovirus),[1],2.56 (1) micrograms per milliliter
same,EC50,Polio 2,0.05 µg/mL
"CCc1cc(CCCOc2c(C)cc(-c3noc(C)n3)cc2C)on1 [Example 8(c), 5-{3-[2,6-dimethyl-4-(5-methyl-1,2,4-oxadiazol-3-yl)phenoxy]propyl}-3-ethylisoxazole]",MIC50,[1],0.017 µg/mL
same,MIC₈₀ (N) (Rhinovirus),[1],0.05 (6) micrograms per milliliter
"Cc1cc(CCCCCOc2c(Cl)cc(-c3nnco3)cc2Cl)on1 [Example 10(c), 5-{5-[2,6-Dichloro-4-(1,3,4-oxadiazol-2-yl)phenoxy]-pentyl}-3-methylisoxazole, reference compound]",EC50,HRV-6,7.06 µg/mL
same,EC50,HRV-86,1.28 µg/mL
same,EC50,HRV-22,0.45 µg/mL
same,EC50,HRV-30,0.1 µg/mL
same,EC50,HRV-50,0.091 µg/mL
same,EC50,HRV-14,2.02 µg/mL
same,EC50,HRV-25,2.42 µg/mL
same,EC50,HRV-1B,0.53 µg/mL
same,EC50,HRV-15,1.92 µg/mL
same,EC50,HRV-41,2.76 µg/mL
same,EC50,HRV-1A,1.45 µg/mL
same,EC50,HRV-21,0.24 µg/mL
same,MIC50,[1],0.25 µg/mL
same,MIC₈₀ (N) (Rhinovirus),[1],0.91 micrograms per milliliter
same,EC50,Polio 2,2.24 µg/mL
same,EC50,HRV-67,0.64 µg/mL
same,EC50,HRV-89,0.28 µg/mL
same,EC50,HRV-2,0.41 µg/mL
